According to patent US9452217B2, “Methods for potentiating immune response for the treatment of infectious diseases and cancer” (Nitor Therapeutics, priority 2013, dated 2016):

Experiments:
[1] = tested on: endogenous interferon-a (IFN-a); conditions: healthy volunteers, oral; cited from earlier work
HCV = conditions: chronically HCV infected patients; cited from earlier work
B16 tumors = experiment: Syngeneic mouse melanoma model; type: in vivo, C57BL/6 mice; conditions: cyclophosphamide 100 mg/kg IP single dose; FIG. 6
Protocol: Method: Cancer cells were injected subcutaneously in right flank of each mouse, 1×10^4 cells in 0.1 ml PBS with 20% Matrigel. Treatment with the NTR001 was initiated on day 6 after injection of tumor cells. Tumor volume and survival were recorded every 3-4 days.

human TLR2 = target: T1, human TLR2 (Homo sapiens, UniProt O60603); experiment: TLR ligand screening: NF-κB activation (SEAP reporter) in HEK293 cells expressing TLR2; type: cell-based; conditions: one concentration: Guanosine 100 uM, NTR001 10 uM, Inosine 100 uM; FIG. 2
T1 construct: expressed in transfected cells; host or cells: HEK293
Protocol: (§1) Method: TLR stimulation is tested by assessing NF-κB activation in HEK293 cells expressing a given TLR. The Secreted Embryonic Alkaline Phosphatase (SEAP) reporter is under the control of a promoter inducible by the transcription factor NF-κB. This reporter gene allows the monitoring of signaling through the TLR, based on the activation of NF-κB. The compounds are evaluated at one concentration and compared to control ligands. This step is performed in triplicate.

human TLR4 = target: T2, human TLR4 (Homo sapiens, UniProt O00206+Q9Y6Y9); experiment: TLR ligand screening: NF-κB activation (SEAP reporter) in HEK293 cells expressing TLR4; type: cell-based; conditions: one concentration: Guanosine 100 uM, NTR001 10 uM, Inosine 100 uM; FIG. 2
T2 construct: expressed in transfected cells; host or cells: HEK293
Protocol: as §1

[2] = tested on: immune response to tetanus toxoid vaccine; experiment: PNPi as adjuvant in tetanus toxoid vaccine efficacy study (mouse); type: in vivo; conditions: mice, p.o., ELISA
[3] = tested on: L. monocytogenes (ATCC Strain35152, hemolytic substrain); experiment: Mouse model of L. monocytogenes infection; conditions: Balb/c mice infected i.v. with 1×10^6 CFU; 30 mg/kg PO or IP, 2 mg/kg drinking water; FIGS. 7 and 9

T1 sequence (O60603 21-784): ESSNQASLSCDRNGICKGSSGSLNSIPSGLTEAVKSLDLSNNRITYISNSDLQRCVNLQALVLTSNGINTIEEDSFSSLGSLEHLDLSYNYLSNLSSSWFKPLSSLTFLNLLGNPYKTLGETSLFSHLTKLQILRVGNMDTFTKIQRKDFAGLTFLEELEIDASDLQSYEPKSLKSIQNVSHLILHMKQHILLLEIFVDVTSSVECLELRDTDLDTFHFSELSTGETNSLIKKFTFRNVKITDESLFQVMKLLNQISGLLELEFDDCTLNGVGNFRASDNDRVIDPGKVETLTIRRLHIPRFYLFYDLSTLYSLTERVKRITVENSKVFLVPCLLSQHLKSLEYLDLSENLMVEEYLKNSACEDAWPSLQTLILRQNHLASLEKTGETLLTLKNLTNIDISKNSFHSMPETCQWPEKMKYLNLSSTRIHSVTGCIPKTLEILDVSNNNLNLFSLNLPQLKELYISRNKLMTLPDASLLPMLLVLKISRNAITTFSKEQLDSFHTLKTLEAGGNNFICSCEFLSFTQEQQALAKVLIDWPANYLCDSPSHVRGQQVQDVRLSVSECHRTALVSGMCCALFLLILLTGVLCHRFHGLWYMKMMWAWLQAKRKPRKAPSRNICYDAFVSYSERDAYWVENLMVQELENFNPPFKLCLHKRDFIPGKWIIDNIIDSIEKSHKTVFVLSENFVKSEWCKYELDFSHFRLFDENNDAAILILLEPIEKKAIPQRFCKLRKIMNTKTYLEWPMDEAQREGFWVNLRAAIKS
T2 sequence (O00206 24-839): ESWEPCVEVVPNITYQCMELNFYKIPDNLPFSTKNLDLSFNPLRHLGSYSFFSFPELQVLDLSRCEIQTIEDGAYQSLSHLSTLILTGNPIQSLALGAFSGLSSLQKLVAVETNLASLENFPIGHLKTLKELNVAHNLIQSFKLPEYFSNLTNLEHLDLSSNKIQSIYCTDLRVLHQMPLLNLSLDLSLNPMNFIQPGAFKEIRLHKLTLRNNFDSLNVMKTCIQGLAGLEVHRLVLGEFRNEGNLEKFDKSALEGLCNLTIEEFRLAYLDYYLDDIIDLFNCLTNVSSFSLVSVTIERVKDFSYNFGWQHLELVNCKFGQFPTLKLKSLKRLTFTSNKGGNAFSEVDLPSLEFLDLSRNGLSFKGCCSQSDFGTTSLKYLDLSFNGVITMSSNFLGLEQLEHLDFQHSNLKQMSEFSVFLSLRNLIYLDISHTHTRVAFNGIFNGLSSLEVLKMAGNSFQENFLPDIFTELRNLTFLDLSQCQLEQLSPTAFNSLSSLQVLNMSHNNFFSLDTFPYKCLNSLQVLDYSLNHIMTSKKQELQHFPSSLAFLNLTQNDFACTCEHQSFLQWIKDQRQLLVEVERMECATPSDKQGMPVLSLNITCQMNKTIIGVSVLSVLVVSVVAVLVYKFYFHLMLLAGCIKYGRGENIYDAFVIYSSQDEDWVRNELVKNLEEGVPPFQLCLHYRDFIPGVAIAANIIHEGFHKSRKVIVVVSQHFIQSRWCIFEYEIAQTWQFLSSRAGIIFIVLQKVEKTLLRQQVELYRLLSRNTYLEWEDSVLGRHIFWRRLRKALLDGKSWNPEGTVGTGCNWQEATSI
T2 sequence (Q9Y6Y9 17-160 limits assumed): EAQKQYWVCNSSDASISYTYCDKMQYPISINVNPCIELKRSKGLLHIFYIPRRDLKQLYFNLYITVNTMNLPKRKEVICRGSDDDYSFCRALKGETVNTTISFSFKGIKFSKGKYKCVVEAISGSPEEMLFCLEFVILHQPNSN

CC(=O)O[C@@H]1C[C@@H](CO)O[C@H]1n1c(=O)sc2cnc(N)nc21 [ANA773]
induction of endogenous interferon-a [1]: induction of endogenous interferon-a (IFN-a) of multiple subtypes
HCV RNA (HCV): dose dependent reduction

O=P1(N(CCCl)CCCl)NCCCO1 (centres unmarked) [Cyclcophosphamide, cyclophosphamide]
survival (B16 tumors): 30%

Nc1nc2c(ncn2[C@@H]2O[C@H](CO)[C@@H](O)[C@H]2O)c(=O)[nH]1 [Guanosine]
stimulatory effect on human TLR2 (human TLR2): significant stimulatory effect
stimulatory effect on human TLR4 (human TLR4): significant stimulatory effect

O=c1[nH]cnc2c(CN3C[C@H](CO)[C@@H](O)C3)c[nH]c12 [NTR002, 1,5-dihydro-7-[[(3R,4R)-3-hydroxy-4-(hydroxymethyl)pyrrolidin-1-yl]methyl]-4H-pyrrolo [3,2-d]pyrimidin-4-one]
serum tetanus toxoid antibody titers compared to the vehicle treated group ([2]; 30 mg/kg (6 days of treatment) and 60 mg/kg (3 days of treatment), day 38, FIG. 3): significantly elevated
serum interferon-g compared to the vehicle treated group ([2]; high dose group 60 mg/kg, day 30, FIG. 4): elevated
weight loss [3]: significant decrease in weight loss
